Experimental data reported in patent publication US6727270B2, “Pyrrolylalkylidene-hydrazinecarboximidamide derivatives as 5-hydroxytryptamine-6 ligands” (Wyeth, priority 2002, dated 2004).
Counter-ions that a name gives are not always drawn.

Molecular target: T1, human cloned 5-HT6 receptors (Homo sapiens, UniProt P50406)
T1 construct: expressed in transfected cells; host or cells: Hela cells
Test: 5-HT6 binding affinity, [3H]-LSD displacement on membranes of Hela cells expressing human cloned 5-HT6 receptors
Conditions: [3H]-LSD 3.0 nM, Hela cell membranes, 120 min at room temperature
Experimental: Comparative Evaluation of 5-HT6 Binding Affinity of Test Compounds
The affinity of test compounds for the serotonin 5-HT6 receptor is evaluated in the following manner. Cultured Hela cells expressing human cloned 5-HT6 receptors are harvested and centrifuged at low speed (1,000×g) for 10.0 min to remove the culture media. The harvested cells are suspended in half volume of fresh physiological phosphate buffered saline solution and recentrifuged at the same speed. This operation is repeated. The collected cells are then homogenized in ten volumes of 50 mM Tris.HCl (pH 7.4) and 0.5 mM EDTA. The homogenate is centrifuged at 40,000×g for 30.0 min and the precipitate is collected. The obtained pellet is resuspended in 10 volumes of Tris.HCl buffer and recentrifuged at the same speed. The final pellet is suspended in a small volume of Tris.HCl buffer and the tissue protein content is determined in aliquots of 10-25 μl volumes. Bovine Serum Albumin is used as the standard in the protein determination according to the method described in Lowry et al., J. Biol. Chem., 193:265 (1951). The volume of the suspended cell membranes is adjusted to give a tissue protein concentration of 1.0 mg/ml of suspension. The prepared membrane suspension (10 times concentrated) is aliquoted in 1.0 ml volumes and stored at −70° C. until used in subsequent binding experiments.
The reaction is allowed to proceed in the dark for 120 min at room temperature, at which time, the bound ligand-receptor complex is filtered off on a 96 well unifilter with a Packard Filtermate® 196 Harvester. The bound complex caught on the filter disk is allowed to air dry and the radioactivity is measured in a Packard TopCount® equipped with six photomultiplier detectors, after the addition of 40.0 μl Microscint®-20 scintillant to each shallow well. The unifilter plate is heat-sealed and counted in a PackardTopCount® with a tritium efficiency of 31.0%.
Binding in the presence of varying concentrations of test compound is expressed as a percentage of specific binding in the absence of test compound. The results are plotted as log % bound versus log concentration of test compound. […] A linear regression line of data points is plotted, from which the IC50 value is determined and the Ki value is determined based upon the following equation: […]
where L is the concentration of the radioactive ligand used and KD is the dissociation constant of the ligand for the receptor, both expressed in nM.

T1 sequence (P50406 whole entry): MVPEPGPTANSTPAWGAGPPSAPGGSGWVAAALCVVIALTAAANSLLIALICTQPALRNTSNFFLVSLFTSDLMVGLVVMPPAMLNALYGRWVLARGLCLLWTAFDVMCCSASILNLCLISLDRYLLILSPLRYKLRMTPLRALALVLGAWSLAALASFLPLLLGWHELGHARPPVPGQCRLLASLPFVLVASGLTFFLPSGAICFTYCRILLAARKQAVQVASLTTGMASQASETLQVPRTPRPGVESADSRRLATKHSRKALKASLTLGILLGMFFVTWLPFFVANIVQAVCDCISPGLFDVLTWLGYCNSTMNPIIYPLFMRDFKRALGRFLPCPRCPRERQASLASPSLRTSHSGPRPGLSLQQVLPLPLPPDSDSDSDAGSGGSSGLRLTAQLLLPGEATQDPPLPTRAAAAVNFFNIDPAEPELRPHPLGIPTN

**Q.** For `C/C(=N\NC(=N)N)c1ccn(S(=O)(=O)c2ccc(C)cc2)c1` [Example 15, 2-{(E)-1-[1-(4-methylphenylsulfonyl)-1H-pyrrol-3-yl]ethylidene}hydrazine-carboximidamide], which Ki is on record?
**A.** The Ki was 5.5 nM.

**Q.** Which Ki does the source give for `C/C(=N\NC(=N)N)c1ccn(S(=O)(=O)c2ccccc2)c1` [Example 14, 2-{(E)-1-[1-(phenylsulfonyl)-1H-pyrrol-3-yl]ethylidene}hydrazinecarboximidamide] here?
**A.** Its Ki is 1.5 nM.

**Q.** With `C/C(=N\NC(=N)N)c1ccn(S(=O)(=O)c2ccc(N)cc2)c1` [Example 18, 2-((E)-1-{1-[(4-aminophenyl)sulfonyl]-1H-pyrrol-3-yl}ethylidene)-1-hydrazine-carboximidamide] as the molecule, how does the Ki read?
**A.** The Ki was 0.6 nM.

**Q.** For `N=C(N)N/N=C1\CCCc2c1ccn2S(=O)(=O)c1ccccc1` [Example 7, 2-[1-(Phenylsulfonyl)-1,5,6,7-tetrahydro-4H-indol-4-ylidine]-1-hydrazinecarboximidamide Hydrochloride], which Ki is on record?
**A.** Its Ki is 37 nM.

**Q.** Which Ki does the source give for `C/C(=N\NC(=N)N)c1c(C)cn(S(=O)(=O)c2ccccc2)c1C` [Example 13, 2-{(E)-1-[2,4-Dimethyl-1-(phenylsulfonyl)-1H-pyrrol-3-yl]ethylidine} hydrazinecarboximidamide Hydrochloride] here?
**A.** Its Ki is 6 nM.

**Q.** With `C/C(=N\NC(=N)N)c1ccn(S(=O)(=O)c2sc3ccc(Cl)cc3c2C)c1` [Example 17] as the molecule, how does the Ki read?
**A.** Its Ki is 32 nM.

**Q.** Which Ki does the source give for `C/C(=N\NC(=N)N)c1ccn(S(=O)(=O)c2sc(N)nc2C)c1` [Example 19, 2-((E)-1-{1-[(2-amino-4-methyl-1,3-thiazol-5-yl)sulfonyl]-1H-pyrrol-3-yl}ethylidene)-1-hydrazinecarboximidamide] here?
**A.** The Ki was 3.75 nM.

**Q.** With “2-{(E)-1-[1-(naphthylsulfonyl)-1H-pyrrol-3-yl]ethylidene}-1-hydrazine-carboximidamide [Example 16]” as the molecule, how does the Ki read?
**A.** Its Ki is 2 nM.

Test system: not given
Test: not given
Conditions: not given

**Q.** With `C/C(=N\NC(=N)N)c1ccn(S(=O)(=O)c2ccccc2)c1` (as salt: hydrochloride) [Example 14, 2-{(E)-1-[1-(phenylsulfonyl)-1H-pyrrol-3-yl]ethylidene}hydrazinecarboximidamide] as the molecule, how does the melting point read?
**A.** Its melting point is 220 to 221 °C.

**Q.** Which melting point does the source give for `C/C(=N\NC(=N)N)c1ccn(S(=O)(=O)c2sc3ccc(Cl)cc3c2C)c1` (as salt: hydrochloride) [Example 17] here?
**A.** Its melting point is 285 °C (dec.).

**Q.** For `C/C(=N\NC(=N)N)c1ccn(S(=O)(=O)c2ccc(C)cc2)c1` (as salt: hydrochloride) [Example 15, 2-{(E)-1-[1-(4-methylphenylsulfonyl)-1H-pyrrol-3-yl]ethylidene}hydrazine-carboximidamide], which melting point is on record?
**A.** The melting point was 277 to 279 °C.

**Q.** With `C/C(=N\NC(=N)N)c1ccn(S(=O)(=O)c2ccc(N)cc2)c1` (as salt: hydrochloride) [Example 18, 2-((E)-1-{1-[(4-aminophenyl)sulfonyl]-1H-pyrrol-3-yl}ethylidene)-1-hydrazine-carboximidamide] as the molecule, how does the melting point read?
**A.** Its melting point is 198 to 200 °C.

**Q.** For `C/C(=N\NC(=N)N)c1ccn(S(=O)(=O)c2sc(N)nc2C)c1` (as salt: hydrochloride) [Example 19, 2-((E)-1-{1-[(2-amino-4-methyl-1,3-thiazol-5-yl)sulfonyl]-1H-pyrrol-3-yl}ethylidene)-1-hydrazinecarboximidamide], which melting point is on record?
**A.** Its melting point is 225 °C (dec.).
